Reference: patent US20110229570A1, “ORALLY RAPIDLY DISINTEGRATING TABLET AND PROCESS FOR PRODUCING SAME” (priority 2008, published 2011)

How the values were obtained:
[1] = Water wettability (wetness time) of tablet; format: physicochemical; details: 1000 kg/punch; for Wetness time, tablet obtained by compressing an excipient only: 300 mg tablet, flat punch 10 mm; for Wetness time, tablet obtained by compressing a mixture of an excipient and a water-insoluble polymer: 300 mg
Method: A water wettability (wetness time) of a tablet was measured in accordance with a known procedure [Chem. Pharm. Bull. 44 (1), 2121-2127 (1996)] as below. Specifically, purified water (6 mL) was put in a weighing dish, and thereon were placed quarto tissue papers (205 mm×120 mm, KimWipe S-200, manufactured by NIPPON PAPER CRECIA Co., LTD). The papers were entirely moistened, and then thereon was gently placed one tablet, and a wetness time required for entirely moistening the tablet was measured.

[2] = Hardness of tablet (tablet hardness tester); format: physicochemical; details: 1000 kg/punch; for Hardness, tablet obtained by compressing an excipient only: 300 mg tablet, flat punch 10 mm; for Hardness, tablet obtained by compressing a mixture of an excipient and a water-insoluble polymer: 300 mg
Method: A hardness of tablet was measured using a tablet hardness tester (manufactured by Schleuniger, type: 6D). The measurement was carried out thrice, and a hardness of tablet was obtained on an average thereof.

[3] = (*1) 97 parts excipient + 3 parts HPMC-AS HF
[4] = (*2) 90 parts excipient + 10 parts HPMC-AS HF

| SMILES | Wetness time, tablet obtained by compressing an excipient only [1] | Wetness time, tablet obtained by compressing a mixture of an excipient and a water-insoluble polymer [1, 3] | Hardness, tablet obtained by compressing an excipient only [2] | Hardness, tablet obtained by compressing a mixture of an excipient and a water-insoluble polymer [2, 3] | Wetness time, tablet obtained by compressing a mixture of an excipient and a water-insoluble polymer [1, 4] | Hardness, tablet obtained by compressing a mixture of an excipient and a water-insoluble polymer [2, 4] |
| --- | --- | --- | --- | --- | --- | --- |
| OC[C@@H](O)[C@@H](O)[C@H](O)[C@H](O)CO [D-mannitol] | 18 s | 43 (*1) seconds | 12 N | 53 (*1) N |  |  |
| OC[C@@H](O)[C@@H](O)CO [Erythritol] |  |  | <4 N |  | 37 (*2) seconds | 23 (*2) N |
| OC[C@H]1O[C@@](CO)(O[C@H]2O[C@H](CO)[C@@H](O)[C@H](O)[C@H]2O)[C@@H](O)[C@@H]1O [Purified sucrose] | 3 s |  | 41 N |  |  |  |

Now from value to molecule:

| Wetness time, tablet obtained by compressing an excipient only [1] | Wetness time, tablet obtained by compressing a mixture of an excipient and a water-insoluble polymer [1, 3] | Hardness, tablet obtained by compressing an excipient only [2] | Hardness, tablet obtained by compressing a mixture of an excipient and a water-insoluble polymer [2, 3] | Wetness time, tablet obtained by compressing a mixture of an excipient and a water-insoluble polymer [1, 4] | Hardness, tablet obtained by compressing a mixture of an excipient and a water-insoluble polymer [2, 4] | SMILES |
| --- | --- | --- | --- | --- | --- | --- |
| >300 s | >300 (*1) seconds | 229 N | 207 (*1) N |  |  | OC[C@@H](O)[C@@H](O)[C@H](O)[C@@H](O)CO [Sorbitol] |
| 3 s |  | 12 N |  | 74 (*2) seconds | 38 (*2) N | OC[C@@H](O)[C@H](O)[C@@H](O)CO [Xylitol] |
